The text below walks through data of US10047051B2, “Substituted pyridines and method of use” (AbbVie S.á{acute over (.)}r.l., priority 2015, dated 2018).

The target of one test is T1, CFTR G551D mutant (Homo sapiens, UniProt P13569, G551D).
T1 construct: expressed in transfected cells; host or cells: HEK293 cells, reverse transfection with plasmids
The test is described as follows: YFP-halide influx assay for the CFTR-G551D mutation (HEK293 cells). The class given is cell-based. The conditions noted are these: forskolin 10.67 μM. In outline: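 HEK293 cells reverse-transfected with CFTR G551D and halide-sensitive YFP (H148Q/I152L/F47L), expressed 24 h at 37 °C. YFP fluorescence quenching recorded for 7 s after I⁻ injection. Response = 1−F/F0; EC50 derived from 1−F/F0 vs compound concentration.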

The target in a further test is T2, CFTR ΔF508 mutant (Homo sapiens, UniProt P13569, DEL508-508).
T2 construct: expressed in transfected cells; host or cells: CFBE41o- cells, adenoviral transduction
In words: YFP-halide influx assay for the CFTR-ΔF508 mutation (CFBE41o- cells). Conditions: forskolin 10.67 μM; for EC50: from (1−F/F0) vs concentration plot. Type of test: cell-based. In outline:
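CFBE41o- cells transduced with adenovirus expressing CFTR ΔF508 and halide-sensitive YFP H148Q/I152L/F47L, then held 24 h at 27° C or with a CFTR modulator 24 h at 37° C. Iodide-induced quench recorded 2 min; EC50 from (1−F/F0) at 36 s versus concentration.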

A value given as a limit tells only on which side of the number the result lay.

T2 sequence (P13569 with tags, fused parts or gaps DEL508-508): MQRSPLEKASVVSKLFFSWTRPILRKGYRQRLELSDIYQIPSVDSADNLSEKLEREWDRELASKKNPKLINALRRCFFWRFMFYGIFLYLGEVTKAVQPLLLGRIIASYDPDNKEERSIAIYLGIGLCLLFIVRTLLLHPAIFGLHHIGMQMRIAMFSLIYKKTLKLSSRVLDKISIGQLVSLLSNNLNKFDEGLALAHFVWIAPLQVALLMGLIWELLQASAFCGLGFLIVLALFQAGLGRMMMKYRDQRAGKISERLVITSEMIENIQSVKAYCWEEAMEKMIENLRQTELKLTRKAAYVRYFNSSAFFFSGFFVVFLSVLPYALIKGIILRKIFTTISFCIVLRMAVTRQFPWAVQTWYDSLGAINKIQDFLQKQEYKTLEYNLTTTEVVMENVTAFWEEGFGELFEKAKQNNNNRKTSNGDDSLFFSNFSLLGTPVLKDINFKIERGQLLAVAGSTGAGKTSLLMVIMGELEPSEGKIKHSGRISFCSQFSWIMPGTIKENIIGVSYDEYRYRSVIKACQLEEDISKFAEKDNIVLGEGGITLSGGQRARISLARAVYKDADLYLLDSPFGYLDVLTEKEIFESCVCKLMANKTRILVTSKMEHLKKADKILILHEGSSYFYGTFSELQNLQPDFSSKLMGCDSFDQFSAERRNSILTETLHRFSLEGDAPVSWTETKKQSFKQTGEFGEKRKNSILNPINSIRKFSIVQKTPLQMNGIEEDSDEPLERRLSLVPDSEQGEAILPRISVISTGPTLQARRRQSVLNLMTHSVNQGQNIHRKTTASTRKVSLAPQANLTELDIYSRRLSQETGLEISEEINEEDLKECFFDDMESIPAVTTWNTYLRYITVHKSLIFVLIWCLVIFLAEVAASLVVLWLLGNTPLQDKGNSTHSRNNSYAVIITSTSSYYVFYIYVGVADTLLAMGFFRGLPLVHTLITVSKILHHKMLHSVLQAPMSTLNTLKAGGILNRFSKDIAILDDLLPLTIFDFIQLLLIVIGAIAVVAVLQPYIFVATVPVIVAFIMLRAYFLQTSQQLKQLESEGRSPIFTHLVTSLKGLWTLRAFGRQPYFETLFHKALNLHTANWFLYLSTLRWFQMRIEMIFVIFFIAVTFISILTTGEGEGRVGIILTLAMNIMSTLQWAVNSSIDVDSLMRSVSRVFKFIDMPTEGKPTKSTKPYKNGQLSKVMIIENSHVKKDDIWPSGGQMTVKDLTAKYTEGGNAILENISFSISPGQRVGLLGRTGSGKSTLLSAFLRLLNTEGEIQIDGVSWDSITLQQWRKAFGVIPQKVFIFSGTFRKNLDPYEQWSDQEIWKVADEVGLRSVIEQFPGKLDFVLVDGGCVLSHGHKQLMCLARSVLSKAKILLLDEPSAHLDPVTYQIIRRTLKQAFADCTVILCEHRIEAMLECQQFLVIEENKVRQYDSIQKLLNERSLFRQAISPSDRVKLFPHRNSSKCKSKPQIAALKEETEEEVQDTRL
T1 sequence (P13569 whole entry G551D): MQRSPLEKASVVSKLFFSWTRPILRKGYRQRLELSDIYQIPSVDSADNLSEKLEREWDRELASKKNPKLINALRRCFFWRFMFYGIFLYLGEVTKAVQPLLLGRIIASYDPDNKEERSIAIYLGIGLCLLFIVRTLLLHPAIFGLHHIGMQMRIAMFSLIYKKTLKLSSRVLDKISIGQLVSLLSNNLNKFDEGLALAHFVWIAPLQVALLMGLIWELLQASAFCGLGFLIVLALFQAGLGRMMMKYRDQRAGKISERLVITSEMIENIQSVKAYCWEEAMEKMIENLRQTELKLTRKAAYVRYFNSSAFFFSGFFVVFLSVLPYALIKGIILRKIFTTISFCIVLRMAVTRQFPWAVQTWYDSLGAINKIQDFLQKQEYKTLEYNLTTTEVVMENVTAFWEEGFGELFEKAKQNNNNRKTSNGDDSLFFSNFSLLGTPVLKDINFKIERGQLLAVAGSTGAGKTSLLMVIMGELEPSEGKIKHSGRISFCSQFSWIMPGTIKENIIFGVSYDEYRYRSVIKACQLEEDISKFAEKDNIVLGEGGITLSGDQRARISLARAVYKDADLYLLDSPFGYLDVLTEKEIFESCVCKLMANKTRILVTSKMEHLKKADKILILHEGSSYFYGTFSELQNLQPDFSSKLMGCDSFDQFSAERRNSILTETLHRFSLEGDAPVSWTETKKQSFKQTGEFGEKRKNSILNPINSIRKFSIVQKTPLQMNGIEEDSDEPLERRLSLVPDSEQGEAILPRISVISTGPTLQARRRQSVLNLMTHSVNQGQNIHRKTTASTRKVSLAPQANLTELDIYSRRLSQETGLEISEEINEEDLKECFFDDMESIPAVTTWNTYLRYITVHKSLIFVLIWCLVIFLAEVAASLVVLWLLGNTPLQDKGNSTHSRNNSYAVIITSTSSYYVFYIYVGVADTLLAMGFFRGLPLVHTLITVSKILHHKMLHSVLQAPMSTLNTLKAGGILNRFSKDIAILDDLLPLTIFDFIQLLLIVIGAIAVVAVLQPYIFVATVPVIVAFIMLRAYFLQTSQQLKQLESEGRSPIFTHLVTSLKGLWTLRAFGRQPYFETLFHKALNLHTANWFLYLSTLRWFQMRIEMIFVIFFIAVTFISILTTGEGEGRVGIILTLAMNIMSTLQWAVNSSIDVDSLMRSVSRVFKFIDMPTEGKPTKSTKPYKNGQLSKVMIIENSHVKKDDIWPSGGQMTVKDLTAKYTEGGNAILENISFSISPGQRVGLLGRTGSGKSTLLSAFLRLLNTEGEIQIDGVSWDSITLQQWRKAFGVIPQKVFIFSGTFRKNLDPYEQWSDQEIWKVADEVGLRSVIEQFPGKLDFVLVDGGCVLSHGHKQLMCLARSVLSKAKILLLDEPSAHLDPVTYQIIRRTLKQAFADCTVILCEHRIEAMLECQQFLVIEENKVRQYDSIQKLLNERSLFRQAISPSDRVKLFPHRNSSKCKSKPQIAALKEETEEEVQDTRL

Turning to `Nc1cc(S(=O)(=O)c2ccc(C(F)(F)F)cc2)cnc1C(=O)NC[C@@H](O)COCC(F)(F)F` [Compound 248, 3-amino-N-[(2R)-2-hydroxy-3-(2,2,2-trifluoroethoxy)propyl]-5-{[4-(trifluoromethyl)phenyl]sulfonyl}pyridine-2-carboxamide], the “% Activation” value is listed as 91.1% at CFTR G551D mutant and 105.0% at CFTR ΔF508 mutant. The 50% effective concentration (EC50) worked out at 385 nM on CFTR G551D mutant and 12 nM on CFTR ΔF508 mutant.

With `CC1(F)CN(C(=O)c2ncc(S(=O)(=O)c3ccc(C(F)(F)F)cc3)cc2N)C1` [Compound 294, (3-amino-5-{[4-(trifluoromethyl)phenyl]sulfonyl}pyridin-2-yl)(3-fluoro-3-methylazetidin-1-yl)methanone], at CFTR G551D mutant, the “% Activation” value is given as 104.0% and the half-maximal effective concentration (EC50) stood at 967 nM. At CFTR ΔF508 mutant, the “% Activation” value turned out to be 97.5% and the midpoint of the response, the EC50, lay at 9.6 nM.

On to `Nc1cc(S(=O)(=O)c2ccc(C(F)(F)F)cc2)cnc1C(=O)N1CC(C(F)(F)F)C1` [Compound 157, (3-amino-5-{[4-(trifluoromethyl)phenyl]sulfonyl}pyridin-2-yl)[3-(trifluoromethyl)azetidin-1-yl]methanone], for which, on CFTR G551D mutant, the “% Activation” value was 28.8% and the concentration giving a half-maximal response (EC50) is over 10000 nM. Further, on CFTR ΔF508 mutant, the “% Activation” value worked out at 101.2% and the concentration giving a half-maximal response (EC50) was 33.7 nM.

Turning to `Nc1cc(S(=O)(=O)c2ccc(OC(F)(F)F)cc2)cnc1C(=O)NCCc1ccco1` [Compound 141, 3-amino-N-[2-(furan-2-yl)ethyl]-5-{[4-(trifluoromethoxy)phenyl]sulfonyl}pyridine-2-carboxamide], at CFTR G551D mutant, the “% Activation” value was 60.4% and a half-maximal response (EC50) required 795 nM. Further, on CFTR ΔF508 mutant, the “% Activation” value is given as 100.6% and the concentration for a half-maximal effect (EC50) came out at 109 nM.

Regarding `Nc1cc(S(=O)(=O)c2ccc(C(F)(F)F)cc2F)cnc1C(=O)NCC(O)COCC(F)(F)F` (stereo not drawn) [Compound 213, 3-amino-5-{[2-fluoro-4-(trifluoromethyl)phenyl]sulfonyl}-N-[2-hydroxy-3-(2,2,2-trifluoroethoxy)propyl]pyridine-2-carboxamide], the “% Activation” value on CFTR G551D mutant came out at 71.0%; at CFTR ΔF508 mutant it was 115.3%. Also, the 50% effective concentration (EC50) at CFTR G551D mutant amounted to 414 nM; at CFTR ΔF508 mutant, 6 nM.

With `COCC(O)CCNC(=O)c1ncc(S(=O)(=O)c2ccc(OC(F)(F)F)cc2)cc1N` (stereo not drawn) [Compound 54, 3-amino-N-(3-hydroxy-4-methoxybutyl)-5-{[4-(trifluoromethoxy)phenyl]sulfonyl}pyridine-2-carboxamide], the “% Activation” value is 62.6% on CFTR G551D mutant and 89.2% on CFTR ΔF508 mutant. In addition, the EC50 on CFTR G551D mutant was 1660 nM; at CFTR ΔF508 mutant it was 72.9 nM.

`CN1CC[C@@H](NC(=O)c2ncc(S(=O)(=O)c3ccc(OC(F)(F)F)cc3)cc2N)C1` [Compound 208, 3-amino-N-[(3R)-1-methylpyrrolidin-3-yl]-5-{[4-(trifluoromethoxy)phenyl]sulfonyl}pyridine-2-carboxamide]: on CFTR G551D mutant, the “% Activation” value worked out at 20.0% and the EC50 was over 10000 nM. Further, on CFTR ΔF508 mutant, the “% Activation” value was determined as 70.5% and the EC50 was 290 nM.

As to `Nc1cc(S(=O)(=O)c2ccc(OC(F)(F)F)cc2)cnc1C(=O)N[C@@H]1CCOc2ccccc21` [Compound 145, 3-amino-N-[(4R)-3,4-dihydro-2H-chromen-4-yl]-5-{[4-(trifluoromethoxy)phenyl]sulfonyl}pyridine-2-carboxamide], at CFTR G551D mutant, the “% Activation” value is 53.9% and it took 836 nM to reach a half-maximal effect (EC50). At CFTR ΔF508 mutant, the “% Activation” value worked out at 98.8% and the EC50 worked out at 205 nM.

In the case of `COCC(O)CNC(=O)c1ncc(S(=O)(=O)N2CCC[C@@H]2C)cc1N` (stereo partly drawn) [Compound 276, 3-amino-N-(2-hydroxy-3-methoxypropyl)-5-{[(2S)-2-methylpyrrolidin-1-yl]sulfonyl}pyridine-2-carboxamide], on CFTR G551D mutant, the “% Activation” value is 13.7% and the EC50 is over 10000 nM. Also, on CFTR ΔF508 mutant, the “% Activation” value was determined as 108.0% and the EC50 is 109 nM.

Turning to `Nc1cc(S(=O)(=O)NC[C@H]2CCOC2)cnc1C(=O)NCC(O)C(F)(F)F` (stereo partly drawn) [Compound 200, 3-amino-5-{[(3R)-tetrahydrofuran-3-ylmethyl]sulfamoyl}-N-(3,3,3-trifluoro-2-hydroxypropyl)pyridine-2-carboxamide], on CFTR G551D mutant, the “% Activation” value was determined as 59.5% and the midpoint of the response, the EC50, lay at 2340 nM. Moreover, on CFTR ΔF508 mutant, the “% Activation” value is 116.7% and the EC50 was 42.9 nM.

Take `CN1CC(NC(=O)c2ncc(S(=O)(=O)c3ccc(OC(F)(F)F)cc3)cc2N)C1` [Compound 210, 3-amino-N-(1-methylazetidin-3-yl)-5-{[4-(trifluoromethoxy)phenyl]sulfonyl}pyridine-2-carboxamide]: on CFTR G551D mutant, the “% Activation” value worked out at 5.8% and the EC50 is over 10000 nM. Besides, at CFTR ΔF508 mutant, the “% Activation” value was 44.6% and the EC50 is over 667 nM.

For `Nc1cc(S(=O)(=O)N2CCCC(F)(F)C2)cnc1C(=O)NCC(O)C(F)(F)F` (stereo not drawn) [Compound 183, 3-amino-5-[(3,3-difluoropiperidin-1-yl)sulfonyl]-N-(3,3,3-trifluoro-2-hydroxypropyl)pyridine-2-carboxamide], on CFTR G551D mutant, the “% Activation” value is 42.0% and a half-maximal effect (EC50) was put at 1130 nM. Besides, at CFTR ΔF508 mutant, the “% Activation” value amounted to 103.7% and the response was half-maximal at 20.8 nM (EC50).

With `C[C@H]1CCCN1S(=O)(=O)c1cnc(C(=O)NCc2nccc(=O)[nH]2)c(N)c1` [Compound 282, 3-amino-5-{[(2S)-2-methylpyrrolidin-1-yl]sulfonyl}-N-[(6-oxo-1,6-dihydropyrimidin-2-yl)methyl]pyridine-2-carboxamide], the “% Activation” value on CFTR G551D mutant is listed as 1.8%; at CFTR ΔF508 mutant, 47.0%. The EC50 at CFTR G551D mutant is over 10000 nM; at CFTR ΔF508 mutant, over 667 nM.

As to `CC1CCCN(S(=O)(=O)c2cnc(C(=O)NCC(O)C(F)(F)F)c(N)c2)C1` (stereo not drawn) [Compound 182, 3-amino-5-[(3-methylpiperidin-1-yl)sulfonyl]-N-(3,3,3-trifluoro-2-hydroxypropyl)pyridine-2-carboxamide], at CFTR G551D mutant, the “% Activation” value is on record as 51.3% and the EC50 is 645 nM. At CFTR ΔF508 mutant, the “% Activation” value was determined as 112.7% and the half-maximal effective concentration (EC50) came to 4.7 nM.

Regarding `Nc1cc(S(=O)(=O)c2ccc(OC(F)(F)F)cc2)cnc1C(=O)N1CC[C@H](F)C1` [Compound 206, (3-amino-5-{[4-(trifluoromethoxy)phenyl]sulfonyl}pyridin-2-yl)[(3S)-3-fluoropyrrolidin-1-yl]methanone], at CFTR G551D mutant, the “% Activation” value is on record as 90.3% and the concentration giving a half-maximal response (EC50) worked out at 3150 nM. At CFTR ΔF508 mutant, the “% Activation” value amounted to 103.0% and the concentration giving a half-maximal response (EC50) stood at 74.8 nM.

On to `COCCS(=O)(=O)c1cc(N)c(C(=O)NC[C@H](C)O)nc1-c1ccc(F)cc1` [Compound 265, 3-amino-6-(4-fluorophenyl)-N-[(2S)-2-hydroxypropyl]-5-[(2-methoxyethyl)sulfonyl]pyridine-2-carboxamide], for which, at CFTR G551D mutant, the “% Activation” value came out at 11.24% and the 50% effective concentration (EC50) is 2000 nM. Also, on CFTR ΔF508 mutant, the “% Activation” value is recorded as 92.4% and the EC50 was found to be 141 nM.

`Nc1cc(S(=O)(=O)c2ccc(C(F)(F)F)cc2)cnc1C(=O)NCCOCC1CCCO1` (stereo not drawn) [Compound 190, 3-amino-N-[2-(tetrahydrofuran-2-ylmethoxy)ethyl]-5-{[4-(trifluoromethyl)phenyl]sulfonyl}pyridine-2-carboxamide]: at CFTR G551D mutant, the “% Activation” value was 67.4% and the EC50 amounted to 1880 nM. Besides, at CFTR ΔF508 mutant, the “% Activation” value amounted to 96.6% and the EC50 is 135 nM.

As for `COCCN(C1CC1)S(=O)(=O)c1cnc(C(=O)NCC(O)C(F)(F)F)c(N)c1` (stereo not drawn) [Compound 108, 3-amino-5-[cyclopropyl(2-methoxyethyl)sulfamoyl]-N-(3,3,3-trifluoro-2-hydroxypropyl)pyridine-2-carboxamide], at CFTR G551D mutant, the “% Activation” value came out at 56.8% and the EC50 came out at 1700 nM. Further, on CFTR ΔF508 mutant, the “% Activation” value is 110.0% and the EC50 amounted to 18.2 nM.

For the compound `Nc1cc(S(=O)(=O)c2ccc(C(F)(F)F)cc2F)cnc1C(=O)NCC(O)COCC1CC1` (stereo not drawn) [Compound 132, 3-amino-N-[3-(cyclopropylmethoxy)-2-hydroxypropyl]-5-{[2-fluoro-4-(trifluoromethyl)phenyl]sulfonyl}pyridine-2-carboxamide], the entries for the “% Activation” value on CFTR G551D mutant and on CFTR ΔF508 mutant were 79.2% and 103.5%, respectively. Besides, the half-maximal effective concentration (EC50) was 395 nM on CFTR G551D mutant and 5.1 nM at CFTR ΔF508 mutant.

Take `Nc1cc(S(=O)(=O)c2ccc(OC(F)(F)F)cc2)cnc1C(=O)NCC1CCCOC1` (stereo not drawn) [Compound 143, 3-amino-N-(tetrahydro-2H-pyran-3-ylmethyl)-5-{[4-(trifluoromethoxy)phenyl]sulfonyl}pyridine-2-carboxamide]: the “% Activation” value on CFTR G551D mutant came to 80.6%; on CFTR ΔF508 mutant, 91.4%. The figures for the EC50 on CFTR G551D mutant and on CFTR ΔF508 mutant were 2300 nM and 136 nM, respectively.

Take `C[C@H](O)CNC(=O)c1nc(-c2ccc(F)cc2)c(S(=O)(=O)CCO)cc1N` [Compound 262, 3-amino-6-(4-fluorophenyl)-5-[(2-hydroxyethyl)sulfonyl]-N-[(2S)-2-hydroxypropyl]pyridine-2-carboxamide]: the “% Activation” value on CFTR G551D mutant is reported as 5.5%; on CFTR ΔF508 mutant it was 8.9%. The EC50 on CFTR G551D mutant and at CFTR ΔF508 mutant was over 1000 nM each time.

The EC50 is the midpoint of the concentration-response curve. Low readings indicate greater potency, high ones weaker potency.
